Key:
[1] = system: U-2 OS cells; assay: Metaphase-TIFs in cells overexpressing FANCM variants; format: cell-based, human; details: stable overexpression
Description: (a) Schematic of FANCM domain interactions, mutations or deletions. For clarity, domains have been color coded by functional role (bottom panel). (b) Quantitation of metaphase-TIFs in U-2 OS cells stably overexpressing wild-type (FANCM+) or FANCM mutants. Scatterplot bars represent the mean±SEM. Out of 3 experiments, n≥110 metaphases scored for each mutant, *p<0.05, **p<0.005, Mann-Whitney test. (c) Quantitation of fragile telomeres in U-2 OS cells stably overexpressing wild-type (FANCM+) or FANCM mutants. Scatterplot bars represent the mean±SEM. Out of 3 experiments, n>100 metaphases scored for each mutant, *p<0.05, **p<0.005, Mann-Whitney test. (d) Representative dot blots and quantitation of C-circle assays in U-2 OS cells stably overexpressing wild-type (FANCM+) or FANCM domain mutants. C-circles were normalized to the mean of vector control. Error bars represent mean±SEM from n=3 experiments, *p<0.05, **p<0.005, Student's t-test. (e) Single molecule analysis of telomeric extension events (top panel) and length of extension events (bottom panel) in U-2 OS cells stably overexpressing wild-type (FANCM+) or FANCM domain mutants. Error bars represent mean±SEM of n≥350 fibers out of 3 experiments, *p<0.05, **p<0.005, Student's t-test.
(§1) FIG. 23. Defects in ALT phenotype suppression are exacerbated by overexpression of a double-mutant (DM) FANCM, in which both the MM2 domain (FF>AA) and the translocase domain (K117R) of FANCM are mutated. (a) Representative dot blots and quantitation of C-circle assays in U-2 OS cells stably overexpressing wild-type (WT) or FANCM domain mutants (K117R, FF>AA; DM). C-circles were normalized to the mean of empty vector control (EV). Error bars represent mean±SEM from n=3 experiments, *p<0.05, **p<0.005, Student's t-test. (b) Quantitation of APB frequency in U-2 OS cells overexpressing wild-type (WT) or FANCM mutants. Scatterplot bars represent the mean±SEM. Out of three experiments, n=150 cells were scored for each mutant, **p<0.005, Mann-Whitney test. (c) Quantitation of metaphase-TIFs in U-2 OS cells stably overexpressing wild-type (WT) or FANCM mutants. Scatterplot bars represent the mean±SEM. Out of three experiments, n=120 metaphases scored for each mutant, *p<0.05, **p<0.005, Mann-Whitney test. All statistical comparisons are relative to EV control.
(§2) Empty vector and wild-type FANCM (pCMV6-Myc-DDK) constructs were obtained from Origene Technologies. Wild type FANCM (SEQ ID NO: 2) and FANCM mutants (SEQ ID NOs: 19 to 28) were cloned into the pLenti-C-Myc-DDK-IRES-Neo backbone (Origene Technologies) by restriction enzyme subcloning of gene blocks synthesized by Integrated DNA Technologies (IDT). Lentivirus was produced by the Vector and Genome Engineering Facility (Children's Medical Research Institute). For stable overexpression, cells were transduced with lentivirus, allowed to recover for 24 h, and subject to G418 selection. Cells were maintained in G418 to ensure sustained overexpression.
Indirect IF and telomere FISH were performed on both interphase nuclei and metaphase spreads. For interphase IF experiments, cells were grown on coverslips or LabTek chamber slides (Thermo Scientific). Slides were prepared as described in Sobinoff et al., 2017. Cells on coverslips were washed twice with PBS, permeabilized with KCM buffer (120 mM KCl, 20 mM NaCl, 10 mM Tris pH 7.5, 0.1% Triton), washed again with PBST and PBS, then fixed with ice-cold 4% formaldehyde PBS solution at room temperature for 10 min. […]

[2] = system: U-2 OS cells; assay: APB frequency and APB telomere intensity in cells overexpressing FANCM variants; format: cell-based, human; details: overexpression
Description: (a) Western immunoblotting of stable wild-type FANCM (FANCM+) or FANCM mutant overexpression in U-2 OS cells. […] (b) TRF analysis of U-2 OS cells overexpressing wild-type (FANCM+) or FANCM mutants. Gels were hybridized under native and denatured conditions with radiolabelled telomeric probes to detect the C-strand and G-strand. (c) Tukey boxplots of APB frequency (top panel) and mean APB telomere intensity (bottom panel) in U-2 OS cells overexpressing wild-type (FANCM+) or FANCM mutants. Out of 3 experiments, n=150 cells scored per variant, *p<0.05, **p<0.005, Mann-Whitney test.
as §1, §2
Indirect IF and telomere FISH were performed on both interphase nuclei and metaphase spreads. For interphase IF experiments, cells were grown on coverslips or LabTek chamber slides (Thermo Scientific). Slides were prepared as described in Sobinoff et al., 2017. Cells on coverslips were washed twice with PBS, permeabilized with KCM buffer (120 mM KCl, 20 mM NaCl, 10 mM Tris pH 7.5, 0.1% Triton), washed again with PBST and PBS, then fixed with ice-cold 4% formaldehyde PBS solution at room temperature for 10 min. Coverslips were blocked with antibody-dilution buffer (20 mM Tris-HCl, pH 7.5, 2% (w/v) BSA, 0.2% (v/v) fish gelatin, 150 mM NaCl, 0.1% (v/v) Triton X-100 and 0.1% (w/v) sodium azide) and 0.1 mg/ml RNaseA for 30 min at 37° C. Cells were incubated with primary antibodies (Supplementary Table 1) for 1 h at 37° C. or 2 h at room temperature, then incubated with 1:1,000 dilution of appropriate Alexa Fluor conjugated secondary antibodies (Thermo Scientific). Coverslips were rinsed with PBS then fixed with 4% (v/v) formaldehyde at room temperature prior to telomere FISH. Coverslips were subjected to a graded ethanol series (75% for 2 min, 85% for 2 min, and 100% for 2 min) and allowed to air-dry. […]

Substance | telomere dysfunction (metaphase-TIFs) [1] | intensity of telomeric signal within APBs [2] | number of APBs [2]
FF>AA: FANCM mutant (SEQ ID NO: 25), double substitution F1232A/F1236A within the MM2 domain | significantly increased | significant increase | significant increase
K117R: FANCM mutant (SEQ ID NO: 20) substituted at K117R, DEAH domain disrupted | failed to suppress the phenotypes | significant increase | significant increase
